From article PMC11700842 (The Journal of Antibiotics, 2024)
Values after ≈ are worked out from the molar mass of the structure shown. Like-named read-outs stand apart in the source and are kept apart here.

Experiments:
[1] = system: M. bovis BCG membrane electric potential; assay type: cell-based
[2] = system: E. faecium E745; test: microbe, parasite or virus in culture; assay type: cell-based; settings: Enterococcus faecium, E745, 24 h, read-out: MIC99 E. faecium E745
[3] = system: M. smegmatis; test: Ethidium bromide accumulation assay in M. smegmatis; assay type: cell-based; settings: analogues 100 µM, verapamil 102 µM, with glucose; for % Change in fluorescence (accumulation): end of 60 min assay; for Rate of accumulation (ethidium bromide): rate from 5–14 minutes
[4] = system: M. bovis BCG; assay type: cell-based; settings: analogues 100 µM, verapamil 102 µM, with glucose; for % Change in fluorescence (accumulation): end of 60 min assay; for Rate of accumulation (ethidium bromide): rate from 5–14 minutes
[5] = system: M. smegmatis; test: Ethidium bromide efflux assay in M. smegmatis; assay type: cell-based; settings: for % Change in fluorescence (efflux) / Rate of efflux (ethidium bromide): analogues 100 µM, verapamil 102 µM, with glucose; for % Change in fluorescence (efflux): end of 60 min assay; for Rate of efflux (ethidium bromide): rate from 0–9 minutes
[6] = target: T1, human dopamine transporter (Homo sapiens, UniProt Q01959); test: cell-based; assay type: cell-based; settings: for IC50: CHO cells transfected with human dopamine transporter, 0.3 µM [3H] dopamine, 90 min, read-out: IC50 against dopamine transporter; for IC50 / inhibition at 0.1 µM: N = 3; for inhibition at 0.1 µM: CHO, dopamine transporter uptake, 100 nM
T1 construct: host or cells: Chinese hamster ovary (CHO) cells
Method: This assay was performed by Eurofins Discovery and is based on a reported method. […] Following incubation, the amount of [^3H] dopamine was quantified using a scintillation counter (Topcount, Packard). The results were expressed as a percentage inhibition relative to the control uptake of [^3H] dopamine.
In this assay, five concentrations of each analogue were tested, in triplicate, ranging from 10 µM to 100 nM (Supplementary Fig. S2).
26 Supplementary Figure S2: Dopamine transporter uptake assays monitoring
The uptake of [3H] dopamine into Chinese
28 hamster ovary cells, transfected with the human dopamine transporter, was used to […]

[7] = system: M. smegmatis; test: MIC determination (resazurin) against M. smegmatis; assay type: cell-based, M. smegmatis mc^2155; settings: Mycolicibacterium smegmatis; lowest concentration reducing growth to 1% or less; 21 h + 3 h resazurin; N = 3
[8] = system: dopamine transporter; assay type: cell-based; settings: based on IC50 from Paudel et al.
[9] = system: M. bovis BCG; assay type: cell-based; settings: analogues 100 µM, verapamil 102 µM, with glucose; for % Change in fluorescence (efflux): end of 60 min assay; for Rate of efflux (ethidium bromide): rate from 0–9 minutes
[10] = system: dopamine transporter; set-up: method as in PMID 28274674; settings: human embryonic kidney 293 cells; 20 nM [3H] dopamine over 5 min at 37 °C; read-out: IC50 against the dopamine transporter; cited from earlier work
[11] = M. bovis BCG, test compounds 100 µM, CCCP 25 µM, Fig. 3

T1 sequence (Q01959 whole entry): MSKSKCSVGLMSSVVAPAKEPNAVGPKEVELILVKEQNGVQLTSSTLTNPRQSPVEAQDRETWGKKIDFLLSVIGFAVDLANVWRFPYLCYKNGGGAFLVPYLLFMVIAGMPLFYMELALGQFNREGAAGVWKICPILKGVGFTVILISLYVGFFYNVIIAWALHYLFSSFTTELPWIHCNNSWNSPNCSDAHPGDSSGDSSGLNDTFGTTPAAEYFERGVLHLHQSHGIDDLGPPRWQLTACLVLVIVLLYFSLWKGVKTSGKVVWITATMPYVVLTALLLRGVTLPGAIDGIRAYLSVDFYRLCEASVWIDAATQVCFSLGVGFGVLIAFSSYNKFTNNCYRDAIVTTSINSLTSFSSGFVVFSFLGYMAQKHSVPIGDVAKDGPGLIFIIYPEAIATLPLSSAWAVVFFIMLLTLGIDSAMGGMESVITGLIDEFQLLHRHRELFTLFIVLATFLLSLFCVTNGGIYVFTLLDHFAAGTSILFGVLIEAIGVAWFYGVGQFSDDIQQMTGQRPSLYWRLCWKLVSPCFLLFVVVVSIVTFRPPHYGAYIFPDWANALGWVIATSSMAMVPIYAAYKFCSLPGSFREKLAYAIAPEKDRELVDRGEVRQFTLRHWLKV

N#CC(C#N)=NNc1cccc(Cl)c1 [CCCP, Carbonyl cyanide m-chlorophenyl hydrazone, reference compound]
impact on membrane electric potential (in words) [1]: greatest loss of electric potential

Fc1ccc(C(OCCN2CCC(Cc3ccccc3)CC2)c2ccc(F)cc2)cc1 [Compound 3]
MIC99 [2]: 25 µM (≈ 10.5 µg/mL) | % Change in fluorescence (accumulation) [3]: 286 ± 1% | Rate of accumulation (ethidium bromide) [3]: 3000 ± 100 RFUs/min | % Change in fluorescence (accumulation) [4]: 67 ± 1% | Rate of accumulation (ethidium bromide) [4]: 480 ± 300 RFUs/min | % Change in fluorescence (efflux) [5]: –11 ± 0.1% | Rate of efflux (ethidium bromide) [5]: –1400 ± 200 RFUs/min | IC50 [6]: 140 nM | inhibition at 0.1 µM [6]: 35.8% | difference between MIC99 against M. bovis BCG and IC50 against the dopamine transporter ([6]; based on data of this study): 179 × | MIC99 [7]: 50 µM | impact on membrane electric potential (in words) [1, 11]: greater impact than vanoxerine | difference between MIC99 against M. bovis BCG and IC50 against the dopamine transporter [8]: 3.7 × | % Change in fluorescence (efflux) [9]: –18 ± 6% | Rate of efflux (ethidium bromide) [9]: –1300 ± 200 RFUs/min | IC50 [10]: 6800 nM

Fc1ccc(C(OCCN2CCNCC2)c2ccc(F)cc2)cc1 [Compound 4]
MIC99 [2]: > 100 µM | % Change in fluorescence (accumulation) [3]: 57 ± 6% | Rate of accumulation (ethidium bromide) [3]: 2700 ± 310 RFUs/min | % Change in fluorescence (accumulation) [4]: 46 ± 2% | Rate of accumulation (ethidium bromide) [4]: 800 ± 2000 RFUs/min | % Change in fluorescence (efflux) [5]: –57 ± 0.1% | Rate of efflux (ethidium bromide) [5]: –4500 ± 400 RFUs/min | MIC99 [7]: > 100 µM | % Change in fluorescence (efflux) [9]: –16 ± 0.4% | Rate of efflux (ethidium bromide) [9]: –1000 ± 800 RFUs/min

Fc1ccc(CN2CCN(CCOC(c3ccc(F)cc3)c3ccc(F)cc3)CC2)cc1 [Compound 5]
MIC99 [2]: > 100 µM | % Change in fluorescence (accumulation) [3]: 175 ± 4% | Rate of accumulation (ethidium bromide) [3]: 1300 ± 20 RFUs/min | % Change in fluorescence (accumulation) [4]: 39 ± 1% | Rate of accumulation (ethidium bromide) [4]: 130 ± 130 RFUs/min | % Change in fluorescence (efflux) [5]: –25 ± 0.2% | Rate of efflux (ethidium bromide) [5]: –1700 ± 200 RFUs/min | MIC99 [7]: > 100 µM | % Change in fluorescence (efflux) [9]: –20 ± 0.02% | Rate of efflux (ethidium bromide) [9]: –1500 ± 50 RFUs/min

Oc1ccc(CN2CCN(CCOC(c3ccc(F)cc3)c3ccc(F)cc3)CC2)cc1 [Compound 6]
MIC99 [2]: > 100 µM | % Change in fluorescence (accumulation) [3]: 75 ± 2% | Rate of accumulation (ethidium bromide) [3]: 1100 ± 40 RFUs/min | % Change in fluorescence (accumulation) [4]: 36 ± 3% | Rate of accumulation (ethidium bromide) [4]: 140 ± 480 RFUs/min | % Change in fluorescence (efflux) [5]: –49 ± 0.3% | Rate of efflux (ethidium bromide) [5]: –2500 ± 200 RFUs/min | MIC99 [7]: > 100 µM | % Change in fluorescence (efflux) [9]: –21 ± 0.2% | Rate of efflux (ethidium bromide) [9]: –1400 ± 330 RFUs/min

Fc1ccc(C(OCCN2CCN(CC3CCCCC3)CC2)c2ccc(F)cc2)cc1 [Compound 7]
MIC99 [2]: 100 µM (≈ 42.9 µg/mL) | % Change in fluorescence (accumulation) [3]: 94 ± 2% | Rate of accumulation (ethidium bromide) [3]: 1000 ± 16 RFUs/min | % Change in fluorescence (accumulation) [4]: 32 ± 1% | Rate of accumulation (ethidium bromide) [4]: 120 ± 90 RFUs/min | % Change in fluorescence (efflux) [5]: –43 ± 0.2% | Rate of efflux (ethidium bromide) [5]: –2200 ± 60 RFUs/min | MIC99 [7]: 100 µM | % Change in fluorescence (efflux) [9]: –21 ± 0.1% | Rate of efflux (ethidium bromide) [9]: –1600 ± 100 RFUs/min

O=C(c1ccccc1)N1CCN(CCOC(c2ccc(F)cc2)c2ccc(F)cc2)CC1 [Compound 8]
MIC99 [2]: > 100 µM | % Change in fluorescence (accumulation) [3]: 37 ± 2% | Rate of accumulation (ethidium bromide) [3]: 600 ± 30 RFUs/min | % Change in fluorescence (accumulation) [4]: 26 ± 2% | Rate of accumulation (ethidium bromide) [4]: 120 ± 460 RFUs/min | % Change in fluorescence (efflux) [5]: –63 ± 0.1% | Rate of efflux (ethidium bromide) [5]: –4300 ± 400 RFUs/min | MIC99 [7]: > 100 µM | % Change in fluorescence (efflux) [9]: –26 ± 0.2% | Rate of efflux (ethidium bromide) [9]: –1799 ± 400 RFUs/min

OC(CCN1CCN(CCOC(c2ccc(F)cc2)c2ccc(F)cc2)CC1)c1ccccc1 (centres unmarked) [Compound 9]
MIC99 [2]: > 100 µM | % Change in fluorescence (accumulation) [3]: 349 ± 1% | Rate of accumulation (ethidium bromide) [3]: 4500 ± 40 RFUs/min | % Change in fluorescence (accumulation) [4]: 68 ± 1% | Rate of accumulation (ethidium bromide) [4]: 1100 ± 1000 RFUs/min | % Change in fluorescence (efflux) [5]: –11 ± 0.1% | Rate of efflux (ethidium bromide) [5]: –1100 ± 110 RFUs/min | IC50 [6]: < 100 nM | inhibition at 0.1 µM [6]: 98.2% | MIC99 [7]: 100 µM | impact on membrane electric potential (in words) [1, 11]: greater impact than vanoxerine | % Change in fluorescence (efflux) [9]: –16 ± 0.4% | Rate of efflux (ethidium bromide) [9]: –1200 ± 600 RFUs/min

C#CCOC(CCN1CCN(CCOC(c2ccc(F)cc2)c2ccc(F)cc2)CC1)c1ccccc1 (centres unmarked) [Compound 10]
MIC99 [2]: > 100 µM | % Change in fluorescence (accumulation) [3]: 323 ± 7% | Rate of accumulation (ethidium bromide) [3]: 4500 ± 260 RFUs/min | % Change in fluorescence (accumulation) [4]: 66 ± 1% | Rate of accumulation (ethidium bromide) [4]: 1200 ± 700 RFUs/min | % Change in fluorescence (efflux) [5]: –13 ± 0.1% | Rate of efflux (ethidium bromide) [5]: –1200 ± 200 RFUs/min | IC50 [6]: < 100 nM | inhibition at 0.1 µM [6]: 95% | MIC99 [7]: 100 µM | impact on membrane electric potential (in words) [1, 11]: greater impact than vanoxerine | % Change in fluorescence (efflux) [9]: –13 ± 0.3% | Rate of efflux (ethidium bromide) [9]: –940 ± 700 RFUs/min

CCCCCCCCCC(=O)OC(CCN1CCN(CCOC(c2ccc(F)cc2)c2ccc(F)cc2)CC1)c1ccccc1 (centres unmarked) [Compound 11]
MIC99 [2]: > 100 µM | % Change in fluorescence (accumulation) [3]: 39 ± 2% | Rate of accumulation (ethidium bromide) [3]: 1000 ± 160 RFUs/min | % Change in fluorescence (accumulation) [4]: 45 ± 1% | Rate of accumulation (ethidium bromide) [4]: 400 ± 300 RFUs/min | effect on ethidium bromide efflux (in words) ([5]; 100 µM): no effect on ethidium bromide efflux | % Change in fluorescence (efflux) [5]: –59 ± 0.1% | Rate of efflux (ethidium bromide) [5]: –5600 ± 160 RFUs/min | MIC99 [7]: > 100 µM | impact on membrane electric potential (in words) [1, 11]: no impact on the electric potential | % Change in fluorescence (efflux) [9]: –28 ± 25% | Rate of efflux (ethidium bromide) [9]: –1900 ± 400 RFUs/min

c1ccc(CCCN2CCN(CCOC(c3ccccc3)c3ccccc3)CC2)cc1 [GBR12935, 1-[2-(Diphenylmethoxy)ethyl]-4-(3-phenylpropyl)piperazine, reference compound]
MIC99 [2]: > 100 µM | % Change in fluorescence (accumulation) [3]: 90 ± 3% | Rate of accumulation (ethidium bromide) [3]: 1100 ± 40 RFUs/min | % Change in fluorescence (accumulation) [4]: 34 ± 2% | Rate of accumulation (ethidium bromide) [4]: 160 ± 240 RFUs/min | % Change in fluorescence (efflux) [5]: –37 ± 0.2% | Rate of efflux (ethidium bromide) [5]: –2000 ± 100 RFUs/min | MIC99 [7]: 100 µM | % Change in fluorescence (efflux) [9]: –16 ± 0.1% | Rate of efflux (ethidium bromide) [9]: –1300 ± 150 RFUs/min

COc1ccc(CCN(C)CCCC(C#N)(c2ccc(OC)c(OC)c2)C(C)C)cc1OC (centres unmarked) [verapamil, reference compound]
% Change in fluorescence (accumulation) [3]: 210 ± 7% | Rate of accumulation (ethidium bromide) [3]: 2900 ± 140 RFUs/min | % Change in fluorescence (accumulation) [4]: 52 ± 6% | Rate of accumulation (ethidium bromide) [4]: 640 ± 1400 RFUs/min
